This is an account of results in ChEMBL document CHEMBL1130569, “pH Dependence of the rate of DNA alkylation for (+)-duocarmycin SA and (+)-CCBI-TMI” (Bioorg Med Chem Lett, 1997).

Data set [1] in a line: Compound was evaluated for first-order rate constant for acid-catalyzed solvolysis at pH 7.6. It is filed as ADME.
Data set [2] relates to Nucleic Acid. Kind of data set: Compound was evaluated for relative rate constant for alkylation of the single high affinity site in w794 DNA at the 6.1 pH points at 25 degrees Centigrade. It is filed as nucleic-acid assay.
Data set [3] relates to Nucleic Acid. Kind of data set: Compound was evaluated for relative rate constant for alkylation of the single high affinity site in w794 DNA at the 6.8 pH points at 25 degrees Centigrade. It is filed as nucleic-acid assay.
The subject of data set [4] is Nucleic Acid. Kind of data set: Compound was evaluated for relative rate constant for alkylation of the single high affinity site in w794 DNA at the 7.6 pH points at 25 degrees Centigrade. It is filed as nucleic-acid assay.
The test system of data set [5] is Nucleic Acid. Kind of data set: Compound was evaluated for relative rate constant for alkylation of the single high affinity site in w794 DNA at the 8.0 pH points at 25 degrees Centigrade. It is filed as nucleic-acid assay.
The test system of data set [6] is Nucleic Acid. Kind of data set: Compound was evaluated for pseudo first-order rate constant for alkylation of the single high affinity site in w794 DNA at the 6.1 pH points at 25 degrees Centigrade. It is filed as nucleic-acid assay.
Data set [7] relates to Nucleic Acid. Kind of data set: Compound was evaluated for pseudo first-order rate constant for alkylation of the single high affinity site in w794 DNA at the 6.8 pH points at 25 degrees Centigrade. It is filed as nucleic-acid assay.
The test system of data set [8] is Nucleic Acid. Briefly: Compound was evaluated for pseudo first-order rate constant for alkylation of the single high affinity site in w794 DNA at the 7.6 pH points at 25 degrees Centigrade. It is filed as nucleic-acid assay.
Data set [9] concerns Nucleic Acid. Kind of data set: Compound was evaluated for pseudo first-order rate constant for alkylation of the single high affinity site in w794 DNA at the 8.0 pH points at 25 degrees Centigrade. It is filed as nucleic-acid assay.
Data set [10] has as its system Nucleic Acid. Briefly: Compound was evaluated for relative rate constant for alkylation of the single high affinity site in w794 DNA at 10 mM NaH2PO4-Na2HPO4 buffers. It is filed as nucleic-acid assay.
Data set [11] concerns Nucleic Acid. Kind of data set: Compound was evaluated for relative rate constant for alkylation of the single high affinity site in w794 DNA at pH 7.5 10 mM NaH2PO4-Na2HPO4, 1 mM EDTA buffers. It is filed as nucleic-acid assay.
The test system of data set [12] is Nucleic Acid. Briefly: Compound was evaluated for relative rate constant for alkylation of the single high affinity site in w794 DNA at pH 7.5 using 10 mM Tris buffers. It is filed as nucleic-acid assay.
The subject of data set [13] is Nucleic Acid. Kind of data set: Compound was evaluated for relative rate constant for alkylation of the single high affinity site in w794 DNA at pH 7.5 using 10 mM Tris, 1 mM EDTA buffers. It is filed as nucleic-acid assay.
Data set [14] has as its system Nucleic Acid. Kind of data set: Compound was evaluated for relative rate constant for alkylation of the single high affinity site in w794 DNA at pH 7.5. It is filed as nucleic-acid assay.
Data set [15] can be described thus: Half-life period for acid-catalyzed solvolysis, was determined at pH 3. It is filed as ADME.
A short description of data set [16]: Half-life period for DNA alkylation, was determined. It is filed as ADME.
In data set [17] the test system is Nucleic Acid. Kind of data set: Compound was evaluated for relative rate constant for alkylation of the single high affinity site in w794 DNA at the 6.0 pH points at 25 degrees Centigrade. It is filed as nucleic-acid assay.
Data set [18] has as its system Nucleic Acid. Kind of data set: Compound was evaluated for relative rate constant for alkylation of the single high affinity site in w794 DNA at the 6.6 pH points at 25 degrees Centigrade. It is filed as nucleic-acid assay.
For data set [19], the system named is Nucleic Acid. Kind of data set: Compound was evaluated for relative rate constant for alkylation of the single high affinity site in w794 DNA at the 7.1 pH points at 25 degrees Centigrade. It is filed as nucleic-acid assay.
The test system of data set [20] is Nucleic Acid. Briefly: Compound was evaluated for relative rate constant for alkylation of the single high affinity site in w794 DNA at the 8.1 pH points at 25 degrees Centigrade. It is filed as nucleic-acid assay.

Values joined by “and” are separate entries in the source; they are usually repeats but may differ in a detail not shown here. Equal entries are not always repeated.

In the case of `COc1cc2cc(C(=O)N3C[C@H]4C[C@@]45C3=CC(=O)c3ccc(C#N)cc35)[nH]c2c(OC)c1OC`, in [1], the k was 2.5e-11 s⁻¹. Further, the Krel in data set [2] was 2.55; in [3], 1.5; in [4] it was 1.2; in data set [5], 1; in [10] it was 1.05; in data set [11], 1. Further, the Krel was 1.74 in data set [12], 1.51 in data set [13] and 2.5 in data set [14]. In addition, the k obs is 0.000706 s⁻¹ in data set [6], 0.000417 s⁻¹ in data set [7], 0.000336 s⁻¹ in [8] and 0.000278 s⁻¹ in data set [9].

Take `COc1ccc2c(c1)[C@@]13C[C@@H]1CN(C(=O)c1cc4cc(OC)c(OC)c(OC)c4[nH]1)C3=CC2=O`: the Krel in data set [14] worked out at 1.9.

In data set [15], `COC(=O)c1cc2c([nH]1)C(=O)C=C1N(C(=O)OC(C)(C)C)C[C@H]3C[C@]123` displayed a T1/2 of 177 h. Also, the k in [1] came out at 1.08e-06 s⁻¹.

In turn, `CC(C)(C)OC(=O)N1C[C@H]2C[C@@]23C1=CC(=O)c1ccccc13` displayed a k in data set [1] of 1.45e-06 s⁻¹.

Consider `COc1ccc2c(c1)[C@@]13C[C@@H]1CN(C(=O)OC(C)(C)C)C3=CC2=O`, for which the k in data set [1] stood at 1.75e-06 s⁻¹.

For `O=C(Nc1ccc2[nH]c(C(=O)N3C[C@H]4C[C@@]45C3=CC(=O)c3ccccc35)cc2c1)c1cc2ccccc2[nH]1`, in data set [14], the Krel was found to be 1.

In the case of `CC(C)(C)OC(=O)N1C[C@H]2C[C@@]23C1=CC(=O)c1ccc(C#N)cc13`, the k in data set [1] stood at 9.9e-07 s⁻¹.

On to `COC(=O)c1cc2c([nH]1)C(=O)C=C1N(C(=O)c3cc4cc(OC)c(OC)c(OC)c4[nH]3)C[C@H]3C[C@]123` [DUOCARMYCIN], for which, in data set [16], the T1/2 amounted to 1.2 years. The k in data set [1] was 2.7e-11 s⁻¹. In addition, the Krel stood at 1.89 in data set [17]; 1.32 in data set [18]; 1.12 in data set [19]; 1.05 in data set [4]; 1 in [20]; 0.9 in data set [14]. Further, the k obs in [6] is 0.000283 s⁻¹; in data set [7], 0.000199 s⁻¹; in [8], 0.000169 s⁻¹; in data set [9], 0.000158 s⁻¹ and 0.00015 s⁻¹.

On to `COc1ccc2c(c1)[C@@]13C[C@@H]1CN(C(=O)c1cc4cc(NC(=O)c5cc6ccccc6[nH]5)ccc4[nH]1)C3=CC2=O`, for which the Krel in data set [14] was determined as 1.4.

In [14], `N#Cc1ccc2c(c1)[C@@]13C[C@@H]1CN(C(=O)c1cc4cc(NC(=O)c5cc6ccccc6[nH]5)ccc4[nH]1)C3=CC2=O` registered a Krel of 2.5.

Regarding `COc1cc2cc(C(=O)N3C[C@H]4C[C@@]45C3=CC(=O)c3ccccc35)[nH]c2c(OC)c1OC`, the Krel in data set [14] was found to be 1.
